In brackets after ≈: the same amount, converted by molar mass. Like-named read-outs stand apart in the source and are kept apart here.
Assays:
Type in all cases: cell-based
[1] = system: Test Organism 16 (Pseudomonas maltophilia IFO 12692); test: influence of the addition of horse serum on the MIC; conditions: Stenotrophomonas maltophilia, read-out: Minimum Inhibitory Concentration
[2] = system: Test Organism 17 (Pseudomonas putida IFO 13696); test: as above
[3] = system: Test Organism 1 (Escherichia Coli NIHJ); test: as above
[4] = system: Test Organism 27 (Streptococcus pneumoniae Type III); test: as above
[5] = system: Proteus rettgeri NIH 96; test: antimicrobial activity, serial dilution method on agar plate; conditions: Providencia rettgeri, read-out: Minimum Inhibitory Concentration
How it was run: (§1)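 Agar-plate serial dilution in Heart Infusion agar; inocula prepared at 1×10^8 cells/ml (O.D. 660 mμ=0.07 to 0.16) and at 1×10^6 cells/ml by dilution. Values are minimum inhibitory concentrations in mcg/ml.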

[6] = system: Pseudomonas maltophilia IFO 12692; test: as above; conditions: Stenotrophomonas maltophilia, IFO12692; inoculum 1 × 10^8 cells/ml; read-out: Minimum Inhibitory Concentration
How it was run: as §1

[7] = system: Staphylococcus aureus FDA 209 P; test: as above; conditions: read-out: Minimum Inhibitory Concentration
How it was run: as §1

[8] = system: Corinebacterium diphteriae; test: as above; conditions: read-out: Minimum Inhibitory Concentration
How it was run: as §1

[9] = system: Enterobacter aerogenes IFO 12979; test: as above; conditions: Klebsiella aerogenes, read-out: Minimum Inhibitory Concentration
How it was run: as §1

[10] = system: Proteus morganii IID Kono; test: as above; conditions: Morganella morganii, read-out: Minimum Inhibitory Concentration
How it was run: as §1

[11] = system: Streptococcus pyogenes IID Cook; test: as above; conditions: inoculum 1 × 10^8 cells/ml, read-out: Minimum Inhibitory Concentration
How it was run: as §1

[12] = system: Klebsiella pneumoniae; test: as above; conditions: read-out: Minimum Inhibitory Concentration
How it was run: as §1

[13] = system: Escherichia Coli NIHJ; test: as above; conditions: read-out: Minimum Inhibitory Concentration
How it was run: as §1

[14] = system: Shigella Sonnei EW 33; test: as above; conditions: read-out: Minimum Inhibitory Concentration
How it was run: as §1

[15] = system: Pseudomonas aeruginosa E-2; test: as above; conditions: read-out: Minimum Inhibitory Concentration
How it was run: as §1

[16] = system: Streptococcus pyogenes IID S-23; test: as above; conditions: read-out: Minimum Inhibitory Concentration
How it was run: as §1

[17] = system: Serattia marcescens IFO 12648; test: as above; conditions: read-out: Minimum Inhibitory Concentration
How it was run: as §1

[18] = system: Salmonella typhi 0-901 (NCTC 8393); test: as above; conditions: Salmonella enterica
How it was run: as §1

[19] = system: Enterobacter cloacae; test: as above; conditions: read-out: Minimum Inhibitory Concentration
How it was run: as §1

[20] = system: Klebsiella pneumoniae ST-101; test: as above; conditions: read-out: Minimum Inhibitory Concentration
How it was run: as §1

[21] = system: Bacillus subtilis PCI 219; test: as above; conditions: read-out: Minimum Inhibitory Concentration
How it was run: as §1

[22] = system: Streptococcus pneumoniae Type III; test: as above; conditions: inoculum 1 × 10^8 cells/ml, read-out: Minimum Inhibitory Concentration
How it was run: as §1

[23] = system: Yersinia enterocolitica 0-3; test: as above; conditions: read-out: Minimum Inhibitory Concentration
How it was run: as §1

[24] = horse serum 0%, inoculum 10^6, read-out: Minimum Inhibitory Concentration
[25] = horse serum 0%, inoculum 10^8, read-out: Minimum Inhibitory Concentration
[26] = horse serum 10%, inoculum 10^6, read-out: Minimum Inhibitory Concentration
[27] = horse serum 10%, inoculum 10^8, read-out: Minimum Inhibitory Concentration
[28] = horse serum 20%, inoculum 10^6, read-out: Minimum Inhibitory Concentration
[29] = horse serum 20%, inoculum 10^8, read-out: Minimum Inhibitory Concentration
[30] = horse serum 40%, inoculum 10^6, read-out: Minimum Inhibitory Concentration
[31] = horse serum 40%, inoculum 10^8, read-out: Minimum Inhibitory Concentration

## CC1CCc2cc(F)cc3c(=O)c(C(=O)O)cn1c23 (stereo not shown) [F]
[1]; IFO12692, horse serum 0%, inoculum 10^6
  MIC: 0.8 µg/mL (≈ 3.06 µM)
[1]; IFO12692, horse serum 0%, inoculum 10^8
  MIC: 0.8 µg/mL (≈ 3.06 µM)
[1]; IFO12692, horse serum 10%, inoculum 10^6
  MIC: 0.4 µg/mL (≈ 1.53 µM)
[1]; IFO12692, horse serum 10%, inoculum 10^8
  MIC: 0.8 µg/mL (≈ 3.06 µM)
[1]; IFO12692, horse serum 20%, inoculum 10^6
  MIC: 1.6 µg/mL (≈ 6.12 µM)
[1]; IFO12692, horse serum 20%, inoculum 10^8
  MIC: 0.8 µg/mL (≈ 3.06 µM)
[1]; IFO12692, horse serum 40%, inoculum 10^6
  MIC: 1.6 µg/mL (≈ 6.12 µM)
[1]; IFO12692, horse serum 40%, inoculum 10^8
  MIC: 1.6 µg/mL (≈ 6.12 µM)
[2]; IFO13696, horse serum 0%, inoculum 10^6, read-out: Minimum Inhibitory Concentration
  MIC: 0.1 µg/mL (≈ 0.383 µM)
[2]; IFO13696, horse serum 0%, inoculum 10^8, read-out: Minimum Inhibitory Concentration
  MIC: 0.2 µg/mL (≈ 0.766 µM)
[2]; IFO13696, horse serum 10%, inoculum 10^6, read-out: Minimum Inhibitory Concentration
  MIC: 0.2 µg/mL (≈ 0.766 µM)
[2]; IFO13696, horse serum 10%, inoculum 10^8, read-out: Minimum Inhibitory Concentration
  MIC: 0.4 µg/mL (≈ 1.53 µM)
[2]; IFO13696, horse serum 20%, inoculum 10^6, read-out: Minimum Inhibitory Concentration
  MIC: 0.2 µg/mL (≈ 0.766 µM)
[2]; IFO13696, horse serum 20%, inoculum 10^8, read-out: Minimum Inhibitory Concentration
  MIC: 0.2 µg/mL (≈ 0.766 µM)
[2]; IFO13696, horse serum 40%, inoculum 10^6, read-out: Minimum Inhibitory Concentration
  MIC: 0.2 µg/mL (≈ 0.766 µM)
[2]; IFO13696, horse serum 40%, inoculum 10^8, read-out: Minimum Inhibitory Concentration
  MIC: 0.2 µg/mL (≈ 0.766 µM)
[3]; [24]
  MIC: 1.6 µg/mL (≈ 6.12 µM)
[3]; [25]
  MIC: 1.6 µg/mL (≈ 6.12 µM)
[3]; [26]
  MIC: 3.1 µg/mL (≈ 11.9 µM)
[3]; [27]
  MIC: 3.1 µg/mL (≈ 11.9 µM)
[3]; [28]
  MIC: 3.1 µg/mL (≈ 11.9 µM)
[3]; [29]
  MIC: 6.3 µg/mL (≈ 24.1 µM)
[3]; [30]
  MIC: 12.5 µg/mL (≈ 47.8 µM)
[3]; [31]
  MIC: 12.5 µg/mL (≈ 47.8 µM)
[4]; [24]
  MIC: 50 µg/mL (≈ 191 µM)
[4]; [25]
  MIC: 50 µg/mL (≈ 191 µM)
[4]; [26]
  MIC: 50 µg/mL (≈ 191 µM)
[4]; [27]
  MIC: > 50 µg/mL
[4]; [28]
  MIC: 50 µg/mL (≈ 191 µM)
[4]; [29]
  MIC: > 50 µg/mL
[4]; [30]
  MIC: 50 µg/mL (≈ 191 µM)
[4]; [31]
  MIC: > 50 µg/mL
[5]; NIH96, inoculum 1 × 10^6 cells/ml
  MIC: 0.1 µg/mL (≈ 0.383 µM)
[5]; NIH96, inoculum 1 × 10^8 cells/ml
  MIC: 0.2 µg/mL (≈ 0.766 µM)
[6]
  MIC: 25 µg/mL (≈ 95.7 µM)
[7]; FDA209, inoculum 1 × 10^6 cells/ml
  MIC: 1.6 µg/mL (≈ 6.12 µM)
[7]; FDA209, inoculum 1 × 10^8 cells/ml
  MIC: 3.1 µg/mL (≈ 11.9 µM)
[8]; inoculum 1 × 10^6 cells/ml
  MIC: > 6.3 µg/mL
[8]; inoculum 1 × 10^8 cells/ml
  MIC: > 25 µg/mL
[9]; IFO12979, inoculum 1 × 10^6 cells/ml
  MIC: 0.2 µg/mL (≈ 0.766 µM)
[9]; IFO12979, inoculum 1 × 10^8 cells/ml
  MIC: 0.4 µg/mL (≈ 1.53 µM)
[10]; inoculum 1 × 10^6 cells/ml
  MIC: 0.4 µg/mL (≈ 1.53 µM)
[10]; inoculum 1 × 10^8 cells/ml
  MIC: 0.8 µg/mL (≈ 3.06 µM)
[11]
  MIC: > 100 µg/mL
[12]; inoculum 1 × 10^6 cells/ml
  MIC: 0.4 µg/mL (≈ 1.53 µM)
[12]; inoculum 1 × 10^8 cells/ml
  MIC: 0.8 µg/mL (≈ 3.06 µM)
[13]; inoculum 1 × 10^6 cells/ml
  MIC: 0.1 µg/mL (≈ 0.383 µM)
[13]; inoculum 1 × 10^8 cells/ml
  MIC: 0.2 µg/mL (≈ 0.766 µM)
[14]; inoculum 1 × 10^6 cells/ml
  MIC: 0.8 µg/mL (≈ 3.06 µM)
[14]; inoculum 1 × 10^8 cells/ml
  MIC: 0.8 µg/mL (≈ 3.06 µM)
[15]; E2, inoculum 1 × 10^6 cells/ml
  MIC: 50 µg/mL (≈ 191 µM)
[15]; E2, inoculum 1 × 10^8 cells/ml
  MIC: 50 µg/mL (≈ 191 µM)
[16]; IIDS23, inoculum 1 × 10^6 cells/ml
  MIC: > 100 µg/mL
[16]; IIDS23, inoculum 1 × 10^8 cells/ml
  MIC: > 100 µg/mL
[17]; inoculum 1 × 10^6 cells/ml
  MIC: 0.4 µg/mL (≈ 1.53 µM)
[17]; inoculum 1 × 10^8 cells/ml
  MIC: 0.8 µg/mL (≈ 3.06 µM)
[18]; read-out: Minimum Inhibitory Concentration, inoculum 1 × 10^6 cells/ml
  MIC: 0.2 µg/mL (≈ 0.766 µM)
[18]; read-out: Minimum Inhibitory Concentration, inoculum 1 × 10^8 cells/ml
  MIC: 0.2 µg/mL (≈ 0.766 µM)
[19]; inoculum 1 × 10^6 cells/ml
  MIC: 0.2 µg/mL (≈ 0.766 µM)
[19]; inoculum 1 × 10^8 cells/ml
  MIC: 0.4 µg/mL (≈ 1.53 µM)
[20]; ST101, inoculum 1 × 10^6 cells/ml
  MIC: 0.1 µg/mL (≈ 0.383 µM)
[20]; ST101, inoculum 1 × 10^8 cells/ml
  MIC: 0.2 µg/mL (≈ 0.766 µM)
[21]; PCI219, inoculum 1 × 10^6 cells/ml
  MIC: 0.2 µg/mL (≈ 0.766 µM)
[21]; PCI219, inoculum 1 × 10^8 cells/ml
  MIC: 0.4 µg/mL (≈ 1.53 µM)
[22]
  MIC: > 100 µg/mL
[23]; Yersinia enterocolitica, 03, inoculum 1 × 10^6 cells/ml
  MIC: 0.4 µg/mL (≈ 1.53 µM)
[23]; Yersinia enterocolitica, 03, inoculum 1 × 10^8 cells/ml
  MIC: 0.8 µg/mL (≈ 3.06 µM)
